Article PMC11742280, “A phase I study of MLN4924 and belinostat in relapsed/refractory acute myeloid leukemia or myelodysplastic syndrome” (Cancer Chemotherapy and Pharmacology, 2025)
Like-named read-outs stand apart in the source and are kept apart here.

Key:
[1] = Plasma pharmacokinetics of pevonedistat (LC/MS/MS, noncompartmental analysis); type: in vivo, human; settings: for Cmax: read-out: preEOI Cmax (peak plasma concentration); for clearance: read-out: Cl (systemic clearance) (converted)
Protocol: Plasma was stored at − 80 °C until analysis.
Pharmacokinetic parameters were summarized using descriptive statistics.

AML = tested on: AML; design: method as in PMID 25733005; settings: cited from earlier work
high-risk MDS = tested on: high-risk MDS; design: method as in PMID 35728048; settings: pevonedistat 20 mg/m^2 D1,3,5 in combination with azacitidine; subset with high-risk MDS, post-hoc analysis, non-statistically significant improvement; cited from earlier work
[2] = tested on: xenograft models of solid tumors, lymphoma, and AML; design: method as in PMID 20203261, PMID 20525923, PMID 23633453, PMID 22562464; settings: cited from earlier work
[3] = design: method as in PMID 31097586, PMID 33441097; settings: e.g. value, compared with clinical Cmax; cited from earlier work
[4] = cycle 1 day 1, dose level 1, pevonedistat 20 mg/m^2 IV (belinostat 800 mg/m^2), n=2, actual values
[5] = human, plasma, iv, 37 mg/m2, cycle 1 day 1, pevonedistat 37 mg/m^2 IV, all 37 mg/m^2 patients (dose levels 3-4), mean±SD, n=6
[6] = human, plasma, iv, cycle 1 day 1, dose level 1, pevonedistat 20 mg/m^2 IV (belinostat 800 mg/m^2), n=2, actual values
[7] = human, plasma, iv, cycle 1 day 1, dose level 2, pevonedistat 25 mg/m^2 IV (belinostat 800 mg/m^2), mean±SD, n=3
[8] = human, plasma, iv, cycle 1 day 1, dose level 3, pevonedistat 37 mg/m^2 IV (belinostat 800 mg/m^2), mean±SD, n=3
[9] = human, plasma, iv, cycle 1 day 1, dose level 4, pevonedistat 37 mg/m^2 IV (belinostat 1000 mg/m^2), mean±SD, n=3

For `NS(=O)(=O)OC[C@@H]1C[C@@H](n2ccc3c(N[C@H]4CCc5ccccc54)ncnc32)C[C@@H]1O` [Pevonedistat], the “Pevonedistat AUCINF by BSA-based dose” value ([1]; 37 mg/m^2 compared with 20 or 25 mg/m^2, p = 0.02, Kruskal–Wallis) was “significantly higher”, the AUCINF [1, 4] was 2.85 µM·h and the “Cl (systemic clearance)” value [1, 4] was 28.5 L/h. For the same compound, the T1/2 [1, 4] was 6.12 h, the Cmax [1, 4] was 311 nM and the “Cl (systemic clearance)” value ([1]; cycle 1 day 1, dose level 3, pevonedistat 37 mg/m^2 IV (belinostat 800 mg/m^2), mean±SD, n=3) was 34.9 ± 2.9 (3) L/hr. The “Cl (systemic clearance)” value ([1]; cycle 1 day 1, dose level 4, pevonedistat 37 mg/m^2 IV (belinostat 1000 mg/m^2), mean±SD, n=3) was 35.5 ± 8.3 (3) L/hr, the “Cl (systemic clearance)” value ([1]; cycle 1 day 1, pevonedistat 37 mg/m^2 IV, all 37 mg/m^2 patients (dose levels 3-4), mean±SD, n=6) was 35.2 ± 5.6 (6) L/hr and the “Pharmacokinetic parameters compared between dose levels” value ([1]; dose levels 1-4, Kruskal–Wallis) was “not different by dose level”. It also gave an AUC(0-inf) [1, 5] of 4.78 ± 0.958 µM·h, a half-life [1, 5] of 5.79 ± 0.99 h and a Cmax [1, 5] of 869 ± 290 nM. The Tmax ([1]; human, plasma, iv, 37 mg/m2, cycle 1 day 1, pevonedistat 37 mg/m^2 IV, all 37 mg/m^2 patients (dose levels 3-4), median (range; n)) was 0.9 h, the AUC(0-inf) [1, 6] was 2.28 µM·h and the Tmax [1, 6] was 0.4 h. For the same compound, the half-life [1, 6] was 5.89 h, the clearance [1, 6] was 627 mL/min and the Cmax [1, 6] was 278 nM. It also gave an AUC(0-inf) [1, 7] of 2.95 ± 0.666 µM·h, a half-life [1, 7] of 6.52 ± 1.38 h and a clearance [1, 7] of 625 mL/min. For the same compound, the Cmax [1, 7] was 372 ± 93.2 nM, the Tmax ([1]; human, plasma, iv, cycle 1 day 1, dose level 2, pevonedistat 25 mg/m^2 IV (belinostat 800 mg/m^2), median (range; n)) was 0.6 h and the AUC(0-inf) [1, 8] was 4.95 ± 0.426 µM·h. The half-life [1, 8] was 5.97 ± 0.34 h, the Cmax [1, 8] was 897 ± 26 nM and the Tmax ([1]; human, plasma, iv, cycle 1 day 1, dose level 3, pevonedistat 37 mg/m^2 IV (belinostat 800 mg/m^2), median (range; n)) was 0.9 h. For the same compound, the AUC(0-inf) [1, 9] was 4.6 ± 1.42 µM·h, the half-life [1, 9] was 5.61 ± 1.5 h and the Cmax [1, 9] was 841 ± 455 nM. The Tmax ([1]; human, plasma, iv, cycle 1 day 1, dose level 4, pevonedistat 37 mg/m^2 IV (belinostat 1000 mg/m^2), median (range; n)) was 1 h, the “Complete remission (CR) + partial remission (PR)” value (AML; single agent in AML) was 17% and the “Maximum Tolerated Dose” value (AML; single agent, D1,3,5 dosing schedule in a 21-day cycle) was 59 mg/m^2. For the same compound, the Survival (high-risk MDS) was 23.8 mos, the “Effect on tumor growth” value [2] was “inhibition of tumor growth” and the “Concentrations shown to exert activity in preclinical studies” value [3] was 100 to 200 nM.
